Patent publication US9340590B2 (priority 2011, dated 2016)
Read-outs that look alike come from different tables or passages of the source. Positions of bridges follow the written chain, without caps; N, C: chain ends. Non-standard residues stand in square brackets, D forms with d. Residues, ends and D or L forms follow the SMILES beside them. 1Nal = N[C@@H](Cc1cccc2ccccc12)C(=O)O; 2Nal = N[C@@H](Cc1ccc2ccccc2c1)C(=O)O; 2Pal = N[C@@H](Cc1ccccn1)C(=O)O; Abu = CC[C@H](N)C(=O)O

How the values were obtained:
[1] = target: hNav1.7 (Homo sapiens, UniProt Q15858); test: cell-based
hNav1.7, sequence (Q15858 whole entry, looked up): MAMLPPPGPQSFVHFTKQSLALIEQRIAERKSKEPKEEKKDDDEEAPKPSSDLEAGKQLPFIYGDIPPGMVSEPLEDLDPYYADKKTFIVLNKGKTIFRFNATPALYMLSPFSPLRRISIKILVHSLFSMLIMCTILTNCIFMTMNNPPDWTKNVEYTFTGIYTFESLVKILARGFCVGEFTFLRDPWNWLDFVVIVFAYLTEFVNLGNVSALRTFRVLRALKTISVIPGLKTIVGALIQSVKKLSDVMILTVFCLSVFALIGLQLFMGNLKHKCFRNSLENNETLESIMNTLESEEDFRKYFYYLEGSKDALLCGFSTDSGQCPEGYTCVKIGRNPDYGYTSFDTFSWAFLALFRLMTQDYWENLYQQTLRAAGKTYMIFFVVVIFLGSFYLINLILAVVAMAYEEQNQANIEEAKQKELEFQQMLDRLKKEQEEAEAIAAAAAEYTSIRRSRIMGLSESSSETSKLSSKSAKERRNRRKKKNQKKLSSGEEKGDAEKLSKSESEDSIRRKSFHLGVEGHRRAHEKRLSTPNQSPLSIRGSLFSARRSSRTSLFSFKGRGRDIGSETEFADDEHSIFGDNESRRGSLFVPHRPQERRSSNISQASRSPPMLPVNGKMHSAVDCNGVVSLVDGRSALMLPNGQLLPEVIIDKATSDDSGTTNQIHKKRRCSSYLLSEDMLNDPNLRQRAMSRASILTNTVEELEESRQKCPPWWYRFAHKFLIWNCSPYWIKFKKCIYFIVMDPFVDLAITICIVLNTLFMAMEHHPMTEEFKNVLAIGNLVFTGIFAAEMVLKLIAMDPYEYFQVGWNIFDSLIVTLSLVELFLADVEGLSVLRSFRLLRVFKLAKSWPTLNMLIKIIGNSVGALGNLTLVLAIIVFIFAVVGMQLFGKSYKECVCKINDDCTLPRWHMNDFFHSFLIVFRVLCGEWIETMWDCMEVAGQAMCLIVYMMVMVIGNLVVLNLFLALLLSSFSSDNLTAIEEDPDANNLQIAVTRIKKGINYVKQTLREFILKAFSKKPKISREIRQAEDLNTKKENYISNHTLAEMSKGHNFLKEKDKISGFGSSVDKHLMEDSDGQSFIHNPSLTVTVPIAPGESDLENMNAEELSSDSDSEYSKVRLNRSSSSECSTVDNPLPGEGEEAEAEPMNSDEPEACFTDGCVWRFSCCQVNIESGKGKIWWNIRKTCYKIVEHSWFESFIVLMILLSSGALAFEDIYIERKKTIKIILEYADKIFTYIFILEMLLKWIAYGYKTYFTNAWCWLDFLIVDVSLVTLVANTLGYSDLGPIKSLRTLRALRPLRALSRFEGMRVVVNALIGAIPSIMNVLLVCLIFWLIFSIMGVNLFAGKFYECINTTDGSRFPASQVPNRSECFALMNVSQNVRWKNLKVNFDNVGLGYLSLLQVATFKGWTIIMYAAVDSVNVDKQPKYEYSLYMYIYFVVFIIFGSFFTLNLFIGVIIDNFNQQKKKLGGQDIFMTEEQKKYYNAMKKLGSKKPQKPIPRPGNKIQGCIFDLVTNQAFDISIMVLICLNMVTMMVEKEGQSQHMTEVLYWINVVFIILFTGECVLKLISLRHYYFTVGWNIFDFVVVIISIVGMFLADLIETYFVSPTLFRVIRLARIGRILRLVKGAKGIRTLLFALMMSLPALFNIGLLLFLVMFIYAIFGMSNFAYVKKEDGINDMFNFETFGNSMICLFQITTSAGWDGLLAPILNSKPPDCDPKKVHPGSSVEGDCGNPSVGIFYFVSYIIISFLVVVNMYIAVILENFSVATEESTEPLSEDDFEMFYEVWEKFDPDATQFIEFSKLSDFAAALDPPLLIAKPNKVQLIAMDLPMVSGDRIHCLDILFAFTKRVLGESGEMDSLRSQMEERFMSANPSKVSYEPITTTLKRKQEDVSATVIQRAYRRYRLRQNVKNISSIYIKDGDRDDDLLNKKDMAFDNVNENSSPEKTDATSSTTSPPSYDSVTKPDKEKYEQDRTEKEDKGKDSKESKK

[2] = target: hNav1.5 (Homo sapiens, UniProt Q14524); test: cell-based
hNav1.5, sequence (Q14524 whole entry, looked up): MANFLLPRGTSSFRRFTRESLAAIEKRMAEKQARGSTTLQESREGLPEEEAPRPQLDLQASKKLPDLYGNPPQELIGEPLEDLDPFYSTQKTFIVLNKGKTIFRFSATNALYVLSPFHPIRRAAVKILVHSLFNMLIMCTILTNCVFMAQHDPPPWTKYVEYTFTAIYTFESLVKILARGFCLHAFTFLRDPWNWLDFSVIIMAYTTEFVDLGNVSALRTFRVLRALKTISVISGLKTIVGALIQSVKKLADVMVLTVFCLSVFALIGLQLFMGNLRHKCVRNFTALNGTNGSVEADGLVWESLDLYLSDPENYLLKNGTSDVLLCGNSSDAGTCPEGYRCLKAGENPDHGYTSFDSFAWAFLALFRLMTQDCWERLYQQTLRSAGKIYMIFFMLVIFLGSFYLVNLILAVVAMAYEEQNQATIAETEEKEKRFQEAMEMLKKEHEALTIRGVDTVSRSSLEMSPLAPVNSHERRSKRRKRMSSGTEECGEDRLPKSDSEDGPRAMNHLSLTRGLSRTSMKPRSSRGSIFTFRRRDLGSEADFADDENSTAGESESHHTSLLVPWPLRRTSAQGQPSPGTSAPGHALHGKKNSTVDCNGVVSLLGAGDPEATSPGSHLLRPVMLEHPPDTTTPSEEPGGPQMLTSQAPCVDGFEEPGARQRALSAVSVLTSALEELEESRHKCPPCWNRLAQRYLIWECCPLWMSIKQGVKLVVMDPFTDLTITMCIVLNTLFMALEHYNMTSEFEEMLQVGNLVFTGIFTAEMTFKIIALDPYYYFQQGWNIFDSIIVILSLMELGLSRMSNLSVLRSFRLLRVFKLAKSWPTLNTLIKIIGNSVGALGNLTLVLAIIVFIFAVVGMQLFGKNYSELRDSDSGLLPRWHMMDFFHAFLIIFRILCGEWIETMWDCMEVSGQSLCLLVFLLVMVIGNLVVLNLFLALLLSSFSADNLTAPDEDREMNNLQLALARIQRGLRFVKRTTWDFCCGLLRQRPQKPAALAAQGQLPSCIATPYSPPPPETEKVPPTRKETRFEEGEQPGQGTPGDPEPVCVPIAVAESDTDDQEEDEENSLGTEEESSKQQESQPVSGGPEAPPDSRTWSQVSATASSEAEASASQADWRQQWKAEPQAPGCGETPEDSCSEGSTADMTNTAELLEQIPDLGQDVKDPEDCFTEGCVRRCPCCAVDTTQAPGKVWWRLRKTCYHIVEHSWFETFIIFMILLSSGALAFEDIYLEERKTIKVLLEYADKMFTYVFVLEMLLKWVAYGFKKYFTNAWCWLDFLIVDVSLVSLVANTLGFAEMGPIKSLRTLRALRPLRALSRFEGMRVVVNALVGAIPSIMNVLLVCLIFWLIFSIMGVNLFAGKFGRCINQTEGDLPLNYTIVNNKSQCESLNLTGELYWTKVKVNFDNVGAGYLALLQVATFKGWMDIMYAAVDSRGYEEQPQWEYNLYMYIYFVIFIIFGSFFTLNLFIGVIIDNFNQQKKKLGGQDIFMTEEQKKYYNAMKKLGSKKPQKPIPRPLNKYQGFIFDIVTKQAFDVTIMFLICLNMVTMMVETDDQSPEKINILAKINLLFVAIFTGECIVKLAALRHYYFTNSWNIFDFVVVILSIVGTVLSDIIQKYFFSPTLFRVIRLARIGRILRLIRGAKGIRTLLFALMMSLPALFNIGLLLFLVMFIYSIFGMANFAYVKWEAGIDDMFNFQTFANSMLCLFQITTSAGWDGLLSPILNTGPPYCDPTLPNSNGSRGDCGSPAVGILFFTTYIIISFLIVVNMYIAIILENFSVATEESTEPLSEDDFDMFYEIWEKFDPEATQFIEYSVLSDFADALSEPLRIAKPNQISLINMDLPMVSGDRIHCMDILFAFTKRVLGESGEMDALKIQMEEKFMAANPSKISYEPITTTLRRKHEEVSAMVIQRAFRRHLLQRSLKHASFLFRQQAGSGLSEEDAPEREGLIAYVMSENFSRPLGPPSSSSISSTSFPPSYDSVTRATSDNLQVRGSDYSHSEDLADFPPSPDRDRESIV

SMILES | IC50 ([1]; Nav1.7 Use IC50) [nM] | IC50 [2] [nM] | IC50 ([1]; read-out: Nav1.7 Use IC50) [nM]
CC[C@H](C)[C@@H]1NC(=O)[C@@H]2CSSC[C@@H]3NC(=O)[C@H](C(C)C)NC(=O)[C@H](CC(C)C)NC(=O)[C@H](CC(N)=O)NC(=O)[C@@H]4CCCN4C(=O)[C@H](CCCNC(=N)N)NC(=O)[C@H](CSSC[C@H](NC(=O)[C@@H](N)CC(=O)O)C(=O)N[C@@H](CC(C)C)C(=O)NCC(=O)N[C@@H](Cc4ccccc4)C(=O)N[C@@H](CCSC)C(=O)N[C@@H](CCCNC(=N)N)C(=O)N[C@@H](CCCCN)C(=O)N2)NC(=O)[C@H](CSSC[C@@H](C(=O)N[C@@H](CCCCN)C(=O)N[C@@H](Cc2ccc(O)cc2)C(=O)N[C@H](C(=O)N[C@@H](Cc2ccccc2)C(=O)N[C@@H](Cc2ccccn2)C(N)=O)C(C)C)NC(=O)[C@H](Cc2c[nH]c4ccccc24)NC(=O)[C@H](CCCCN)NC(=O)[C@H](Cc2c[nH]cn2)NC(=O)[C@H]([C@@H](C)O)NC(=O)[C@H](CCCNC(=N)N)NC(=O)[C@H](CO)NC3=O)NC(=O)[C@H](CCCCN)NC(=O)[C@H](CC(=O)O)NC(=O)[C@H](CC(N)=O)NC(=O)[C@H](CC(=O)O)NC(=O)[C@@H]2CCCN2C1=O [GpTx-1(1-34)-2PAL] | 27 | > 10000 | 
CC[C@H](C)[C@@H]1NC(=O)[C@@H]2CSSC[C@@H]3NC(=O)[C@H](C(C)C)NC(=O)[C@H](CC(C)C)NC(=O)[C@H](CC(N)=O)NC(=O)[C@@H]4CCCN4C(=O)[C@H](CCCNC(=N)N)NC(=O)[C@H](CSSC[C@H](NC(=O)[C@@H](N)CC(=O)O)C(=O)N[C@@H](CC(C)C)C(=O)NCC(=O)N[C@@H](Cc4ccccc4)C(=O)N[C@@H](CCSC)C(=O)N[C@@H](CCCNC(=N)N)C(=O)N[C@@H](CCCCN)C(=O)N2)NC(=O)[C@H](CSSC[C@@H](C(=O)N[C@@H](CCCCN)C(=O)N[C@@H](Cc2ccc(O)cc2)C(=O)N[C@H](C(=O)N[C@@H](Cc2ccccc2)C(N)=O)C(C)C)NC(=O)[C@H](Cc2c[nH]c4ccccc24)NC(=O)[C@H](CCCCN)NC(=O)[C@H](Cc2c[nH]cn2)NC(=O)[C@H]([C@@H](C)O)NC(=O)[C@H](CCCNC(=N)N)NC(=O)[C@H](CO)NC3=O)NC(=O)[C@H](CCCCN)NC(=O)[C@H](CC(=O)O)NC(=O)[C@H](Cc2cccc3ccccc23)NC(=O)[C@H](CC(=O)O)NC(=O)[C@@H]2CCCN2C1=O [[1-Nal13]GpTx-1(1-34)] (H-DCLGFMRKCIPD[1Nal]DKCCRPNLVCSRTHKWCKYVF-NH2; disulfide 2-17, 9-23, 16-30) |  | 7330 | 2
CC[C@@H]1NC(=O)[C@@H]2CSSC[C@@H](C(=O)N[C@@H](CCCCN)C(=O)N[C@@H](Cc3ccc(O)cc3)C(=O)N[C@H](C(=O)N[C@@H](Cc3ccccc3)C(N)=O)C(C)C)NC(=O)[C@H](Cc3c[nH]c4ccccc34)NC(=O)[C@H](CCCCN)NC(=O)[C@H](Cc3c[nH]cn3)NC(=O)[C@H]([C@@H](C)O)NC(=O)[C@H](CCCNC(=N)N)NC(=O)[C@H](CO)NC(=O)[C@H](CSSC[C@H](NC(=O)[C@H](CCCCN)NC(=O)[C@H](CCCNC(=N)N)NC(=O)[C@H](CCSC)NC(=O)[C@H](Cc3ccccc3)NC(=O)CNC(=O)[C@H](CC(C)C)NC(=O)[C@H](CC)NC(=O)[C@@H](N)CC(=O)O)C(=O)N[C@@H]([C@@H](C)CC)C(=O)N3CCC[C@H]3C(=O)N[C@@H](CC(=O)O)C(=O)N[C@@H](CC(N)=O)C(=O)N[C@@H](CC(=O)O)C(=O)N[C@@H](CCCCN)C(=O)N2)NC(=O)[C@H](C(C)C)NC(=O)[C@H](CC(C)C)NC(=O)[C@H](CC(N)=O)NC(=O)[C@@H]2CCCN2C(=O)[C@H](CCCNC(=N)N)NC1=O [[2-Abu2,17]GpTx-1(1-34)] (H-D[Abu]LGFMRKCIPDNDKC[Abu]RPNLVCSRTHKWCKYVF-NH2; disulfide 9-23, 16-30) | 21 | 10000 | 
CC[C@@H]1NC(=O)CNC(=O)[C@H](CC(C)C)NC(=O)[C@@H](NC(=O)[C@@H](N)CC(=O)O)CSSC[C@@H]2NC(=O)[C@@H]3CSSC[C@@H](C(=O)N[C@@H](CCCCN)C(=O)N[C@@H](Cc4ccc(O)cc4)C(=O)N[C@H](C(=O)N[C@@H](Cc4ccccc4)C(N)=O)C(C)C)NC(=O)[C@H](Cc4c[nH]c5ccccc45)NC(=O)[C@H](CCCCN)NC(=O)[C@H](Cc4c[nH]cn4)NC(=O)[C@H]([C@@H](C)O)NC(=O)[C@H](CCCNC(=N)N)NC(=O)[C@H](CO)NC(=O)[C@H](CSSC[C@H](NC(=O)[C@H](CCCCN)NC(=O)[C@H](CCCNC(=N)N)NC(=O)[C@H](CC(C)C)NC1=O)C(=O)N[C@@H]([C@@H](C)CC)C(=O)N1CCC[C@H]1C(=O)N[C@@H](CC(=O)O)C(=O)N[C@@H](CC(N)=O)C(=O)N[C@@H](CC(=O)O)C(=O)N[C@@H](CCCCN)C(=O)N3)NC(=O)[C@H](C(C)C)NC(=O)[C@H](CC(C)C)NC(=O)[C@H](CC(N)=O)NC(=O)[C@@H]1CCCN1C(=O)[C@H](CCCNC(=N)N)NC2=O [[2-Abu5;Leu6]GpTx-1(1-34)] | 22 | > 10000 | 
CC[C@H](C)[C@@H]1NC(=O)[C@@H]2CSSC[C@@H]3NC(=O)[C@H](C(C)C)NC(=O)[C@H](CC(C)C)NC(=O)[C@H](CC(N)=O)NC(=O)[C@@H]4CCCN4C(=O)[C@H](CCCNC(=N)N)NC(=O)[C@H](CSSC[C@H](NC(=O)[C@@H](N)CC(=O)O)C(=O)N[C@@H](CC(C)C)C(=O)NCC(=O)N[C@@H](Cc4ccccc4)C(=O)N[C@@H](CCSC)C(=O)N[C@@H](CCCNC(=N)N)C(=O)N[C@@H](CCCCN)C(=O)N2)NC(=O)[C@H](CSSC[C@@H](C(=O)N[C@@H](CCCCN)C(=O)N[C@@H](Cc2ccc(O)cc2)C(=O)N[C@H](C(=O)N[C@@H](Cc2ccccc2)C(N)=O)C(C)C)NC(=O)[C@H](Cc2ccc4ccccc4c2)NC(=O)[C@H](CCCCN)NC(=O)[C@H](Cc2c[nH]cn2)NC(=O)[C@H]([C@@H](C)O)NC(=O)[C@H](CCCNC(=N)N)NC(=O)[C@H](CO)NC3=O)NC(=O)[C@H](CCCCN)NC(=O)[C@H](CC(=O)O)NC(=O)[C@H](CC(N)=O)NC(=O)[C@H](CC(=O)O)NC(=O)[C@@H]2CCCN2C1=O [[2-Nal29]GpTx-1(1-34)] (H-DCLGFMRKCIPDNDKCCRPNLVCSRTHK[2Nal]CKYVF-NH2; disulfide 2-17, 9-23, 16-30) | 66 | > 10000 | 
CC[C@H](C)[C@@H]1NC(=O)[C@@H]2CSSC[C@@H]3NC(=O)[C@H](C(C)C)NC(=O)[C@H](CC(C)C)NC(=O)[C@H](CC(N)=O)NC(=O)[C@@H]4CCCN4C(=O)[C@H](Cc4ccccn4)NC(=O)[C@H](CSSC[C@H](NC(=O)[C@@H](N)CC(=O)O)C(=O)N[C@@H](CC(C)C)C(=O)NCC(=O)N[C@@H](Cc4ccccc4)C(=O)N[C@@H](CCSC)C(=O)N[C@@H](CCCNC(=N)N)C(=O)N[C@@H](CCCCN)C(=O)N2)NC(=O)[C@H](CSSC[C@@H](C(=O)N[C@@H](CCCCN)C(=O)N[C@@H](Cc2ccc(O)cc2)C(=O)N[C@H](C(=O)N[C@@H](Cc2ccccc2)C(N)=O)C(C)C)NC(=O)[C@H](Cc2c[nH]c4ccccc24)NC(=O)[C@H](CCCCN)NC(=O)[C@H](Cc2cnc[nH]2)NC(=O)[C@H]([C@@H](C)O)NC(=O)[C@H](CCCNC(=N)N)NC(=O)[C@H](CO)NC3=O)NC(=O)[C@H](CCCCN)NC(=O)[C@H](CC(=O)O)NC(=O)[C@H](CC(N)=O)NC(=O)[C@H](CC(=O)O)NC(=O)[C@@H]2CCCN2C1=O [[2PAL18]GpTx-1(1-34)] (H-DCLGFMRKCIPDNDKCC[2Pal]PNLVCSRTHKWCKYVF-NH2; disulfide 2-17, 9-23, 16-30) | 3 | 13700 | 
CC[C@H](C)[C@@H]1NC(=O)[C@@H]2CSSC[C@@H]3NC(=O)[C@H](Cc4ccccn4)NC(=O)[C@H](CC(C)C)NC(=O)[C@H](CC(N)=O)NC(=O)[C@@H]4CCCN4C(=O)[C@H](CCCNC(=N)N)NC(=O)[C@H](CSSC[C@H](NC(=O)[C@@H](N)CC(=O)O)C(=O)N[C@@H](CC(C)C)C(=O)NCC(=O)N[C@@H](Cc4ccccc4)C(=O)N[C@@H](CCSC)C(=O)N[C@@H](CCCNC(=N)N)C(=O)N[C@@H](CCCCN)C(=O)N2)NC(=O)[C@H](CSSC[C@@H](C(=O)N[C@@H](CCCCN)C(=O)N[C@@H](Cc2ccc(O)cc2)C(=O)N[C@H](C(=O)N[C@@H](Cc2ccccc2)C(N)=O)C(C)C)NC(=O)[C@H](Cc2c[nH]c4ccccc24)NC(=O)[C@H](CCCCN)NC(=O)[C@H](Cc2c[nH]cn2)NC(=O)[C@H]([C@@H](C)O)NC(=O)[C@H](CCCNC(=N)N)NC(=O)[C@H](CO)NC3=O)NC(=O)[C@H](CCCCN)NC(=O)[C@H](CC(=O)O)NC(=O)[C@H](CC(N)=O)NC(=O)[C@H](CC(=O)O)NC(=O)[C@@H]2CCCN2C1=O [[2PAL22]GpTx-1(1-34)] (H-DCLGFMRKCIPDNDKCCRPNL[2Pal]CSRTHKWCKYVF-NH2; disulfide 2-17, 9-23, 16-30) | 7 | 16000 | 
CC[C@H](C)[C@@H]1NC(=O)[C@@H]2CSSC[C@@H]3NC(=O)[C@H](C(C)C)NC(=O)[C@H](CC(C)C)NC(=O)[C@H](CC(N)=O)NC(=O)[C@@H]4CCCN4C(=O)[C@H](CCCNC(=N)N)NC(=O)[C@H](CSSC[C@H](NC(=O)[C@@H](N)CC(=O)O)C(=O)N[C@@H](CC(C)C)C(=O)NCC(=O)N[C@@H](Cc4ccccc4)C(=O)N[C@@H](CCSC)C(=O)N[C@@H](CCCNC(=N)N)C(=O)N[C@@H](CCCCN)C(=O)N2)NC(=O)[C@H](CSSC[C@@H](C(=O)N[C@@H](CCCCN)C(=O)N[C@@H](Cc2ccccn2)C(=O)N[C@H](C(=O)N[C@@H](Cc2ccccc2)C(N)=O)C(C)C)NC(=O)[C@H](Cc2c[nH]c4ccccc24)NC(=O)[C@H](CCCCN)NC(=O)[C@H](Cc2c[nH]cn2)NC(=O)[C@H]([C@@H](C)O)NC(=O)[C@H](CCCNC(=N)N)NC(=O)[C@H](CO)NC3=O)NC(=O)[C@H](CCCCN)NC(=O)[C@H](CC(=O)O)NC(=O)[C@H](CC(N)=O)NC(=O)[C@H](CC(=O)O)NC(=O)[C@@H]2CCCN2C1=O [[2PAL32]GpTx-1(1-34)] (H-DCLGFMRKCIPDNDKCCRPNLVCSRTHKWCK[2Pal]VF-NH2; disulfide 2-17, 9-23, 16-30) | 35 | > 10000 | 
